Target: Replicase polyprotein 1ab (Severe acute respiratory syndrome coronavirus 2) (UniProt P0DTD1)
Description: Functional biochemical assay to identify treatments for viral infectious disease that targets SARS-COV-2 nsp3 macrodomain, whereby the mechanism of action displaces an ADP-Ribose modified peptide from the binding site. Utilizing a time-resolved fluorescence method to measure binding by reading the emitted fluorescence intensity in two wavelengths.

Clc1cnc(N2CCN(c3ncnc4[nH]ccc34)CC2)c(Cl)c1
inhibition (Concentration 50.0 uM, Number of replicates 2.0, Standard deviation 0.674 %): -2%
inhibition (Concentration 100.0 uM, Number of replicates 2.0, Standard deviation 2.989 %): -6.57%

O=C(c1ccccc1)N1CCC(c2ccn3ncc(C(=O)N4CCCC[C@H](O)C4)c3c2)CC1
inhibition (Concentration 49.75 uM, Number of replicates 2.0, Standard deviation 40.732 %): 17.8%
inhibition (Concentration 99.5 uM, Number of replicates 2.0, Standard deviation 41.407 %): 29.8%

CC(C)[C@@H](Nc1ncnc2n[nH]cc12)c1cnn(C)c1
inhibition (Concentration 50.0 uM, Number of replicates 2.0, Standard deviation 1.634 %): 63.5%

Cn1ncc2c(NCc3ncccc3O)ncnc21
inhibition (Concentration 50.0 uM, Number of replicates 2.0, Standard deviation 16.275 %): 3.89%

O=C(c1ccccc1)N1CCC(c2ccn3ncc(C(=O)N4CCn5ncnc5C4)c3c2)CC1
inhibition (Concentration 49.75 uM, Number of replicates 2.0, Standard deviation 0.529 %): -3.77%
inhibition (Concentration 99.5 uM, Number of replicates 2.0, Standard deviation 3.194 %): -3.52%

O=C(NCc1ccc(Cl)cn1)c1ncnc2[nH]ccc12
inhibition (Concentration 50.0 uM, Number of replicates 2.0, Standard deviation 1.293 %): -4.96%
inhibition (Concentration 100.0 uM, Number of replicates 2.0, Standard deviation 0.093 %): -2.57%

CC(C)[C@@H]1C(=O)NCCN1c1ncnc2[nH]ccc12
inhibition (Concentration 49.75 uM, Number of replicates 2.0, Standard deviation 1.976 %): 61.4%
inhibition (Concentration 99.5 uM, Number of replicates 2.0, Standard deviation 0.754 %): 80.7%

Cc1cccc2oc(CCNc3ncnc4[nH]ccc34)nc12
inhibition (Concentration 50.0 uM, Number of replicates 2.0, Standard deviation 6.123 %): -3.26%

Cc1[nH]c2ncnc(NC(=O)c3ccncc3Cl)c2c1C
inhibition (Concentration 50.0 uM, Number of replicates 2.0, Standard deviation 1.372 %): 69.6%
inhibition (Concentration 100.0 uM, Number of replicates 2.0, Standard deviation 0.621 %): 85.6%

COc1ccccc1C[C@@H](Nc1ncnc2[nH]ccc12)C(C)C
inhibition (Concentration 49.75 uM, Number of replicates 2.0, Standard deviation 1.888 %): 31.7%
inhibition (Concentration 99.5 uM, Number of replicates 2.0, Standard deviation 1.108 %): 48.5%

O=C(Cc1ccon1)Nc1ncnc2[nH]cnc12
inhibition (Concentration 50.0 uM, Number of replicates 2.0, Standard deviation 0.023 %): -1.61%

O=C(NCc1nc(-c2ccco2)n[nH]1)c1cc2nccn2c(=O)[nH]1
inhibition (Concentration 50.0 uM, Number of replicates 2.0, Standard deviation 0.515 %): -5.42%

O=C(CCN(Cc1cccc(Cl)c1)C(=O)c1cnon1)N1CCNCC1
inhibition (Concentration 49.75 uM, Number of replicates 2.0, Standard deviation 0.478 %): -2.44%
inhibition (Concentration 99.5 uM, Number of replicates 2.0, Standard deviation 0.154 %): -1.08%

Cn1cnc(C(=O)N(CCC(=O)N2CCNCC2)Cc2cccc(Cl)c2)n1
inhibition (Concentration 49.75 uM, Number of replicates 2.0, Standard deviation 2.331 %): -1.44%
inhibition (Concentration 99.5 uM, Number of replicates 2.0, Standard deviation 4.384 %): -0.25%

C[C@@H](Nc1ncnc2[nH]ccc12)c1cnn(Cc2ccccc2)c1
inhibition (Concentration 49.75 uM, Number of replicates 2.0, Standard deviation 0.659 %): -4.11%
inhibition (Concentration 99.5 uM, Number of replicates 2.0, Standard deviation 0.985 %): 3.18%

Cc1noc([C@@H]2CCCN(c3ncnc4[nH]ccc34)C2)n1
inhibition (Concentration 50.0 uM, Number of replicates 2.0, Standard deviation 1.725 %): 1.92%

O=C(OCc1cccc(Cl)n1)c1ncnc2[nH]ccc12
inhibition (Concentration 50.0 uM, Number of replicates 2.0, Standard deviation 4.164 %): 11.4%

c1cnc([C@@H]2CCN(c3ncnc4[nH]ccc34)C2)cn1
inhibition (Concentration 50.0 uM, Number of replicates 2.0, Standard deviation 2.663 %): -1.7%

Cc1nn(Cc2ccccc2)c(C)c1CNc1ncnc2[nH]ncc12
inhibition (Concentration 50.0 uM, Number of replicates 2.0, Standard deviation 2.858 %): -1.75%

O=C(O)c1sccc1C(=O)N1CCC(c2ccn3ncc(C(=O)N4CCCCC4)c3c2)CC1
inhibition (Concentration 49.75 uM, Number of replicates 2.0, Standard deviation 1.624 %): 55.5%
inhibition (Concentration 99.5 uM, Number of replicates 2.0, Standard deviation 1.425 %): 71.5%

O=C(O)c1ccsc1C(=O)N1CCC(c2ccn3ncc(C(=O)N4CCCCC4)c3c2)CC1
inhibition (Concentration 49.75 uM, Number of replicates 2.0, Standard deviation 4.674 %): 45%
inhibition (Concentration 99.5 uM, Number of replicates 2.0, Standard deviation 0.647 %): 61.2%

CCn1cc(CNC(=O)c2ccc(NC(=O)Nc3ccccc3)cc2)cn1
inhibition (Concentration 49.75 uM, Number of replicates 2.0, Standard deviation 1.767 %): -1.76%
inhibition (Concentration 99.5 uM, Number of replicates 2.0, Standard deviation 3.239 %): 3.8%

Cc1ncc(NCc2ncn(C)c2Cl)cc1C(N)=O
inhibition (Concentration 50.0 uM, Number of replicates 2.0, Standard deviation 1.923 %): 2.41%

Cn1cc([C@@H](Nc2ncnc3[nH]ccc23)C2CCC2)cn1
inhibition (Concentration 49.75 uM, Number of replicates 2.0, Standard deviation 3.794 %): 78.1%
inhibition (Concentration 99.5 uM, Number of replicates 2.0, Standard deviation 1.201 %): 91%

c1ccc([C@@H](CNc2ncnc3n[nH]cc23)N2CCOCC2)cc1
inhibition (Concentration 50.0 uM, Number of replicates 2.0, Standard deviation 1.427 %): -0.781%

O=C(CCN(Cc1cccc(Cl)c1)C(=O)[C@@H]1CC1(F)F)N1CCNCC1
inhibition (Concentration 49.75 uM, Number of replicates 2.0, Standard deviation 3.095 %): -2.07%
inhibition (Concentration 99.5 uM, Number of replicates 2.0, Standard deviation 1.648 %): -3.76%

NS(=O)(=O)N1CCCN(c2ncnc3[nH]c(I)cc23)CC1
inhibition (Concentration 50.0 uM, Number of replicates 2.0, Standard deviation 1.583 %): 2.29%

O=C(OCC(Br)=C1CCOCC1)c1ncnc2[nH]ccc12
inhibition (Concentration 50.0 uM, Number of replicates 2.0, Standard deviation 2.217 %): -5.36%

Cc1[nH]c2ncnc(NCc3ccco3)c2c1C
inhibition (Concentration 50.0 uM, Number of replicates 2.0, Standard deviation 0.505 %): 17%
inhibition (Concentration 100.0 uM, Number of replicates 2.0, Standard deviation 0.323 %): 37.5%

O=C(N[C@@H]1COCC[C@H]1O)c1cnn2ccc(C3CCN(C(=O)c4ccccc4)CC3)cc12
inhibition (Concentration 49.75 uM, Number of replicates 2.0, Standard deviation 1.335 %): -5.01%
inhibition (Concentration 99.5 uM, Number of replicates 2.0, Standard deviation 2.833 %): -4.48%

CCN1CCN(C(=O)c2cnn3ccc(C4CCN(C(=O)c5ccccc5)CC4)cc23)CC1=O
inhibition (Concentration 49.75 uM, Number of replicates 2.0, Standard deviation 2.605 %): -8.63%
inhibition (Concentration 99.5 uM, Number of replicates 2.0, Standard deviation 4.496 %): -3.46%

C[C@@H](NC(=O)c1cnn2ccc(C3CCN(C(=O)c4ccccc4)CC3)cc12)c1cc[nH]n1
inhibition (Concentration 49.75 uM, Number of replicates 2.0, Standard deviation 1.723 %): -4.99%
inhibition (Concentration 99.5 uM, Number of replicates 2.0, Standard deviation 0.833 %): -2.77%

Oc1ccccc1CNc1ncnc2cccnc12
inhibition (Concentration 49.75 uM, Number of replicates 2.0, Standard deviation 0.51 %): -1.84%
inhibition (Concentration 99.5 uM, Number of replicates 2.0, Standard deviation 1.128 %): -0.535%

NC(=O)c1ccccc1NC(=O)c1ncnc2[nH]ccc12
inhibition (Concentration 50.0 uM, Number of replicates 2.0, Standard deviation 0.083 %): -2.59%

O=C(c1nnn[nH]1)N1CCC(c2ccn3ncc(C(=O)N4CCCCC4)c3c2)CC1
inhibition (Concentration 49.75 uM, Number of replicates 2.0, Standard deviation 0.79 %): 55.1%
inhibition (Concentration 99.5 uM, Number of replicates 2.0, Standard deviation 0.232 %): 69%

O=C(c1cnc2[nH]ncc2c1)N1CCC(c2ccn3ncc(C(=O)N4CCCCC4)c3c2)CC1
inhibition (Concentration 49.75 uM, Number of replicates 2.0, Standard deviation 0.466 %): 15.8%
inhibition (Concentration 99.5 uM, Number of replicates 2.0, Standard deviation 6.369 %): 34.4%

O=C(NCCn1cncn1)c1cnn2ccc(C3CCN(C(=O)c4ccccc4)CC3)cc12
inhibition (Concentration 49.75 uM, Number of replicates 2.0, Standard deviation 1.365 %): -3.7%
inhibition (Concentration 99.5 uM, Number of replicates 2.0, Standard deviation 1.7 %): -2.57%

CN1CCO[C@H](CNC(=O)c2ccc(NC(=O)Nc3ccccc3)cc2)C1
inhibition (Concentration 49.75 uM, Number of replicates 2.0, Standard deviation 5.309 %): -0.616%
inhibition (Concentration 99.5 uM, Number of replicates 2.0, Standard deviation 6.496 %): 3.27%

c1ccc(OC[C@@H]2CCCN2c2ncnc3[nH]ccc23)cc1
inhibition (Concentration 50.0 uM, Number of replicates 2.0, Standard deviation 1.709 %): -0.466%

c1cc(CNc2ncnc3nc[nH]c23)n2ncnc2c1
inhibition (Concentration 50.0 uM, Number of replicates 2.0, Standard deviation 1.124 %): 1.35%
inhibition (Concentration 100.0 uM, Number of replicates 2.0, Standard deviation 5.338 %): 10%

O=C(Nc1ccccc1)Nc1ccc(C(=O)NCCc2cccnc2)cc1
inhibition (Concentration 49.75 uM, Number of replicates 2.0, Standard deviation 2.77 %): 1.27%
inhibition (Concentration 99.5 uM, Number of replicates 2.0, Standard deviation 0.373 %): 10.4%

CCC[C@@](C)(NC(=O)c1ncnc2[nH]ccc12)C(=O)OC
inhibition (Concentration 50.0 uM, Number of replicates 2.0, Standard deviation 3.705 %): -6.62%

Cn1c(C(=O)N(CCC(=O)N2CCNCC2)Cc2cccc(Cl)c2)cnc1O
inhibition (Concentration 49.75 uM, Number of replicates 2.0, Standard deviation 0.601 %): -4.76%
inhibition (Concentration 99.5 uM, Number of replicates 2.0, Standard deviation 2.256 %): -2.76%

CC(C)[C@@H](Nc1ncnc2[nH]ccc12)C(N)=O
inhibition (Concentration 49.75 uM, Number of replicates 2.0, Standard deviation 3.584 %): 64.4%
inhibition (Concentration 99.5 uM, Number of replicates 2.0, Standard deviation 5.819 %): 77.7%

c1ccc(-c2n[nH]cc2CNc2cnc3[nH]ncc3c2)cc1
inhibition (Concentration 50.0 uM, Number of replicates 2.0, Standard deviation 1.159 %): -2.04%

c1nc(N2CC[C@@H](n3cncn3)C2)c2cc[nH]c2n1
inhibition (Concentration 50.0 uM, Number of replicates 2.0, Standard deviation 1.464 %): -1.54%

O=C(OCc1ccc(Cl)nc1)c1ncnc2[nH]ccc12
inhibition (Concentration 50.0 uM, Number of replicates 2.0, Standard deviation 1.988 %): 6.08%

Fc1ccc(F)c(Sc2ncnc3[nH]ccc23)c1
inhibition (Concentration 50.0 uM, Number of replicates 2.0, Standard deviation 6.588 %): -1.15%

O=C(c1cccnc1S)N1CCC(c2ccn3ncc(C(=O)N4CCCCC4)c3c2)CC1
inhibition (Concentration 49.75 uM, Number of replicates 2.0, Standard deviation 1.032 %): 32.3%
inhibition (Concentration 99.5 uM, Number of replicates 2.0, Standard deviation 1.028 %): 52.6%

CC(C)OCCNC(=O)c1cc2c(=O)n3ccccc3nc2n1C
inhibition (Concentration 50.0 uM, Number of replicates 2.0, Standard deviation 4.259 %): 14%

Cc1cc(C(=O)Nc2[nH]nc3nc(O)ccc23)c2c(C)nn(C)c2n1
inhibition (Concentration 50.0 uM, Number of replicates 2.0, Standard deviation 0.36 %): -6.17%
inhibition (Concentration 100.0 uM, Number of replicates 2.0, Standard deviation 2.675 %): -3.32%

Source: ChEMBL document CHEMBL5442379, “ASAP - SARS-CoV-2 nsp3 macrodomain single point” (2024)
